Results published in US20040039001A1, “2-guanidino-4-aryl-quinazoline” (priority 2000, published 2004).
Counter-ions that a name gives are not always drawn.

| Compound | melting point |
| --- | --- |
| Cl.N=C(N)Nc1nc(-c2ccccc2)c2c(O)cccc2n1 | 310 °C |
| CN=C(NC)Nc1nc(-c2ccccc2)c2cc(Cl)ccc2n1.Cl | 264 to 267 °C |
| CS(=O)(=O)c1ccc2nc(NC(=N)N)nc(-c3ccccc3)c2c1 (as salt: HCl) [Example 6, N-(6-methanesulfonyl-4-phenylquinazolin-2-yl)guanidine] | 180 to 185 °C |
| C[S+]([O-])c1ccc2nc(NC(=N)N)nc(-c3ccccc3)c2c1 (stereo not shown) [Example 5, N-(6-methanesulfinyl-4-phenylquinazolin-2-yl)guanidine] | 175 to 180 °C |
